# Laboratory results published in patent US7652053B2, “Diaminocycloalkane MCH receptor antagonists” (Hoffmann-La Roche Inc., priority 2006, dated 2010).
# Counter-ions that a name gives are not always drawn. Like-named read-outs stand apart in the source and are kept apart here.
# Target: T1, recombinant human MCHR1 receptors (Homo sapiens, UniProt Q99705)
# T1 construct: expressed in transfected cells
# Experiment: MCHR Filter Binding Assay (competition binding with [Phe13[125I]Tyr19]-MCH)
# Protocol: Competition binding assay was conducted in MultiScreen […] glass fiber type B filter plates (96-well, Millipore). The MultiScreen plates were pretreated by incubation with 0.5% polyvinylpyrrolidone solution containing 1% BSA and 0.1% tween-20 for 12 hours at 4° C. and washed five times with ice-cold 10 mM Tris buffer, pH 7.5, followed by incubation with 200 µL of binding buffer (50 mM HEPES, 2.5 mM CaCl2, 0.05 mM BSA, 1 mM phenanthroline, 0.03 mM Triton X-100) for 5 min at room temperature and plates were drained before the binding reactions. The binding assay was performed by pre-incubating 2.8 µg of membranes from CHO-K1 cells stably expressing the recombinant human MCHR1 receptors, and various concentrations (final concentration 0.059 nM to 45 µM) of unlabeled MCH or antagonists in binding buffer for 15 min at room temperature. The competition reaction was started by adding final concentration (0.2 nM) [Phe^13[^125I]Tyr^19]-MCH (PerkinElmer). The final volume of the reaction was 90 µL per well. After 60 min incubation time at room temperature the reaction was stopped by rapid filtration over 96-well filter plates. Following termination of the binding reactions, the filters were washed with ice-cold binding buffer (4×200 µL), and were air dried for 30 min. Scintillation cocktail (60 µL) was added to each well and radioactivity bound to the plates was determined using a Micro-beta plate reader (Wallace/PerkinElmer). The inhibition potency of antagonist was expressed as IC50, the concentration of compound at which the binding of radio labeled MCH to MCHR1 was inhibited by 50%.
# [1] = membranes from CHO-K1 cells stably expressing human MCHR1, 0.2 nM radiolabeled MCH, read-out: Activity in MCHR binding assays (IC50 class)
# [2] = inhibition of binding of MCH to MCHR
# [3] = inhibition of binding of MCH to MCHR, read-out: MCHR IC50
# T1 sequence (Q99705 whole entry): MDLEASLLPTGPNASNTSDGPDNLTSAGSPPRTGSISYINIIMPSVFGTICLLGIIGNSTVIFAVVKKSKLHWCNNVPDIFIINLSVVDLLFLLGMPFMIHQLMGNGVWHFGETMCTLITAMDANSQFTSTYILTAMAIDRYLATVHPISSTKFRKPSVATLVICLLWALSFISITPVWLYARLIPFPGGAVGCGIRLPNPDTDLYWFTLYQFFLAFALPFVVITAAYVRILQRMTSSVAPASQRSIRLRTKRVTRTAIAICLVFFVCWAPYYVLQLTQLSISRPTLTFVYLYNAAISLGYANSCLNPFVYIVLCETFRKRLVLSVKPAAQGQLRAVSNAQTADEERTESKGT
SMILES,IC50 [1],Ki [2],IC50 [3]
"Cc1ccc2c(c1)nc(C)n2[C@@H]1CC[C@@H](NCC2Cc3ccc(Cl)cc3C2)C1 (relative stereo) [Example 3, trans-(5-Chloro-indan-2-ylmethyl)-[3-(2,5-dimethyl-benzoimidazol-1-yl)-cyclopentyl]-amine]",0.1 to 1 µM,–,–
"Cc1ccc2c(c1)nc(C(C)(C)O)n2[C@H]1CC[C@H](NCC2Cc3ccc(F)cc3C2)CC1 (stereo partly drawn) [Example 19, trans-2-(1-{4-[(5-Fluoro-indan-2-ylmethyl)-amino]-cyclohexyl}-5-methyl-1H-benzoimidazol-2-yl)-propan-2-ol]",0.1 to 1 µM,–,–
"CC(C)(O)c1nc2cc(Cl)ccc2n1[C@H]1CC[C@@H](NCC2Cc3ccc(C(F)(F)F)cc3C2)CC1 (relative stereo) [Example 8, cis-2-(5-Chloro-1-{4-[(5-trifluoromethyl-indan-2-ylmethyl)-amino]-cyclohexyl}-1H-benzoimidazol-2-yl)-propan-2-ol]",0.1 to 1 µM,–,–
"Cc1ccc2c(c1)nc(C)n2[C@@H]1CC[C@@H](NC[C@H]2Cc3ccc(Br)cc3C2)C1 [Example 2, trans-(S)-(5-Bomo-indan-2-ylmethyl)-[3-(2,5-dimethyl-benzoimidazol-1-yl)-cyclopentyl]-amine]",0.1 to 1 µM,–,–
"Cc1ccc2c(c1)nc(C(C)(C)O)n2[C@H]1CC[C@@H](NCC2Cc3ccc(Cl)cc3C2)CC1 (stereo partly drawn) [Example 20, cis-2-(1-{4-[(5-Chloro-indan-2-ylmethyl)-amino]-cyclohexyl}-5-methyl-1H-benzoimidazol-2-yl)-propan-2-ol]",0.01 to 0.1 µM,0.021 µM,0.026 µM
"Cc1ccc2c(c1)nc(C)n2[C@H]1CC[C@@H](NC2Cc3ccccc3C2)CC1 [Example 1, cis-4-(2,5-Dimethyl-benzoimidazol-1-yl)-cyclohexyl]-indan-2-yl-amine; hydrochloride]",0.1 to 1 µM,–,–
"CC(C)(O)c1nc2cc(Cl)ccc2n1[C@H]1CC[C@@H](NC[C@H]2Cc3ccc(Br)cc3C2)CC1 [Example 7, cis-(S)-2-(1-{4-[(5-Bromo-indan-2-ylmethyl)-amino]-cyclohexyl}-5-chloro-1H-benzoimidazol-2-yl)-propan-2-ol]",0.01 to 0.1 µM,0.019 µM,0.024 µM
"CC(=O)N(C[C@H]1Cc2ccc(C#N)cc2C1)[C@H]1CC[C@@H](n2c(C(C)(C)O)nc3cc(Cl)ccc32)CC1 [Example 23, cis-(S)—N-{4-[5-Chloro-2-(1-hydroxy-1-methyl-ethyl)-benzoimidazol-1-yl]-cyclohexyl}-N-(5-cyano-indan-2-ylmethyl)-acetamide]",0.1 to 1 µM,0.154 µM,0.193 µM
"CC(C)(O)c1nc2cc(Cl)ccc2n1[C@H]1CC[C@@H](NC[C@@H]2Cc3ccc(Br)cc3C2)CC1 [Example 24, cis-(R)-2-(1-{4-[(5-Bromo-indan-2-ylmethyl)-amino]-cyclohexyl}-5-chloro-1H-benzoimidazol-2-yl)-propan-2-ol]",0.01 to 0.1 µM,–,–
"Cc1nc2cc(C#N)ccc2n1[C@H]1CC[C@@H](NCC2Cc3ccc(Cl)cc3C2)CC1 (stereo partly drawn) [Example 25, cis-1-{4-[(5-Chloro-indan-2-ylmethyl)-amino]-cyclohexyl}-2-methyl-1H-benzoimidazole-5-carbonitrile]",0.01 to 0.1 µM,–,–
"Cc1ccc2c(c1)nc(C)n2[C@H]1CC[C@@H](NCC2Cc3ccc(C(F)(F)F)cc3C2)CC1 (stereo partly drawn) [Example 12, cis-[4-(2,5-Dimethyl-benzoimidazol-1-yl)-cyclohexyl]-(5-trifluoromethyl-indan-2-ylmethyl)-amine]",0.1 to 1 µM,–,–
"Cc1ccc2c(c1)nc(C(C)(C)O)n2[C@H]1CC[C@H](NC[C@H]2Cc3ccc(C#N)cc3C2)CC1 [Example 17, trans-(S)-2-({4-[2-(1-Hydroxy-1-methyl-ethyl)-5-methyl-benzoimidazol-1-yl]-cyclohexylamino}-methyl)-indan-5-carbonitrile]",0.1 to 1 µM,–,–
"Cc1ccc2c(c1)nc(C)n2[C@H]1CC[C@@H](NCC2Cc3ccccc3C2)CC1 [Example 13, cis-[4-(2,5-Dimethyl-benzoimidazol-1-yl)-cyclohexyl]-indan-2-ylmethyl-amine]",0.1 to 1 µM,–,–
"Cc1ccc2c(c1)nc(C(C)(C)O)n2[C@H]1CC[C@H](NCC2Cc3ccc(Cl)cc3C2)CC1 (stereo partly drawn) [Example 21, trans-2-(1-{4-[(5-Chloro-indan-2-ylmethyl)-amino]-cyclohexyl}-5-methyl-1H-benzoimidazol-2-yl)-propan-2-ol]",0.1 to 1 µM,–,–
"Cc1ccc2c(c1)nc(C)n2[C@H]1CC[C@@H](NCC2Cc3ccc(Cl)cc3C2)CC1 (stereo partly drawn) [Example 11, cis-(5-Chloro-indan-2-ylmethyl)-[4-(2,5-dimethyl-benzoimidazol-1-yl)-cyclohexyl]-amine]",0.01 to 0.1 µM,–,–
"Cc1ccc2c(c1)nc(C)n2[C@@H]1CC[C@H](NC[C@H]2Cc3ccc(Br)cc3C2)C1 [Example 5, cis-(S)-(5-Bromo-indan-2-ylmethyl)-[3-(2,5-dimethyl-benzoimidazol-1-yl)-cyclopentyl]-amine]",0.1 to 1 µM,–,–
"CC(C)(O)c1nc2cc(Cl)ccc2n1[C@H]1CC[C@@H](NCC2Cc3ccccc3C2)CC1 [Example 9, cis-2-(5-Chloro-1-{4-[(indan-2-ylmethyl)-amino]-cyclohexyl}-1H-benzoimidazol-2-yl)-propan-2-ol]",0.01 to 0.1 µM,–,–

# Continued, values first:
IC50 [1],Ki [2],IC50 [3],SMILES
0.01 to 0.1 µM,–,–,"Cc1ccc2c(c1)nc(C(C)(C)O)n2[C@H]1CC[C@@H](NCC2Cc3ccc(F)cc3C2)CC1 (stereo partly drawn) [Example 18, cis-2-(1-{4-[(5-Fluoro-indan-2-ylmethyl)-amino]-cyclohexyl}-5-methyl-1H-benzoimidazol-2-yl)-propan-2-ol]"
0.01 to 0.1 µM,–,–,"CC(C)(O)c1nc2cc(Cl)ccc2n1[C@H]1CC[C@@H](NCC2Cc3ccc(Cl)cc3C2)CC1 (stereo partly drawn) [Example 10, cis-2-(5-Chloro-1-{4-[(5-chloro-indan-2-ylmethyl)-amino]-cyclohexyl}-1H-benzoimidazol-2-yl)-propan-2-ol]"
0.01 to 0.1 µM,–,–,"Cc1ccc2c(c1)nc(C)n2[C@H]1CC[C@@H](NC[C@H]2Cc3ccc(Br)cc3C2)CC1 [Example 4, cis-(S)-(5-Bromo-indan-2-ylmethyl)-[4-(2,5-dimethyl-benzoimidazole-1-yl)-cyclohexyl]-amine hydrochloride]"
< 0.01 µM,–,–,"Cc1ccc2c(c1)nc(C(C)(C)O)n2[C@H]1CC[C@@H](NC[C@H]2Cc3ccc(C#N)cc3C2)CC1 [Example 16, cis-(S)-2-({4-[2-(1-Hydroxy-1-methyl-ethyl)-5-methyl-benzoimidazol-1-yl]-cyclohexylamino}-methyl)-indan-5-carbonitrile]"
0.01 to 0.1 µM,–,–,"Cc1ccc2c(c1)nc(C)n2[C@H]1CC[C@@H](NC2Cc3ccc(Cl)cc3C2)CC1 (stereo partly drawn) [Example 6, cis-(5-Chloro-indan-2-yl)-[4-(2,5-dimethyl-benzoimidazol-1-yl)-cyclohexyl]-amine; hydrochloride]"
< 0.01 µM,0.002 µM,0.003 µM,"Cc1nc2cc(F)ccc2n1[C@H]1CC[C@@H](NC[C@H]2Cc3ccc(C#N)cc3C2)CC1 [Example 26, cis-(S)-2-{[4-(5-Fluoro-2-methyl-benzoimidazol-1-yl)-cyclohexylamino]-methyl}-indan-5-carbonitrile]"
0.01 to 0.1 µM,–,–,"Cc1ccc2c(c1)nc(C)n2[C@H]1CC[C@@H](NC[C@H]2Cc3ccc(C#N)cc3C2)CC1 [Example 15, cis-(S)-2-{[4-(2,5-Dimethyl-benzoimidazol-1-yl)-cyclohexylamino]-methyl}-indan-5-carbonitrile]"
< 0.01 µM,0.0018 µM,0.0022 µM,"CC(C)(O)c1nc2cc(Cl)ccc2n1[C@H]1CC[C@@H](NC[C@H]2Cc3ccc(C#N)cc3C2)CC1 [Example 14, cis-(S)-2-({4-[5-Chloro-2-(1-hydroxy-1-methyl-ethyl)-benzoimidazol-1-yl]-cyclohexylamino}-methyl)-indan-5-carbonitrile]"
< 0.01 µM,–,–,"CC(C)(O)c1nc2cc(Cl)ccc2n1[C@H]1CC[C@@H](NC[C@@H]2Cc3ccc(C#N)cc3C2)CC1 [Example 22, cis-(R)-2-({4-[5-Chloro-2-(1-hydroxy-1-methyl-ethyl)-benzoimidazol-1H-yl]-cyclohexylamino}-methyl)-indan-5-carbonitrile]"
